Read-outs that look alike come from different tables or passages of the source.
Legend:
[1] = target: T1, Human mTOR (FLAG-TOR) (Homo sapiens, UniProt P42345); assay: Human mTOR kinase assay with purified enzyme, DELFIA format; type: biochemical
T1 construct: FLAG
Summary of the method: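 Purified FLAG-mTOR in HEPES pH 7.4 buffer with 10 mM MnCl2 was preincubated with inhibitor and reacted 2 h at room temperature with His6-S6K substrate, then stopped with EDTA/EGTA. Phospho-T389 S6K detected by DELFIA with Eu-labelled antibody (40 ng/mL) after plate capture; inhibition computed from signal.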

[2] = target: T2, PI3K (Homo sapiens, UniProt P42336); assay: Fluorescence polarization assay for PI3K; type: biochemical; details: read-out: PI3 Kinase α IC50
T2 construct: PI3 Kinase α IC50; other: PI3 Kinase α; other: PI3 Kinase α isoform, fluorescence polarization
T2 sequence (P42336 whole entry, canonical isoform): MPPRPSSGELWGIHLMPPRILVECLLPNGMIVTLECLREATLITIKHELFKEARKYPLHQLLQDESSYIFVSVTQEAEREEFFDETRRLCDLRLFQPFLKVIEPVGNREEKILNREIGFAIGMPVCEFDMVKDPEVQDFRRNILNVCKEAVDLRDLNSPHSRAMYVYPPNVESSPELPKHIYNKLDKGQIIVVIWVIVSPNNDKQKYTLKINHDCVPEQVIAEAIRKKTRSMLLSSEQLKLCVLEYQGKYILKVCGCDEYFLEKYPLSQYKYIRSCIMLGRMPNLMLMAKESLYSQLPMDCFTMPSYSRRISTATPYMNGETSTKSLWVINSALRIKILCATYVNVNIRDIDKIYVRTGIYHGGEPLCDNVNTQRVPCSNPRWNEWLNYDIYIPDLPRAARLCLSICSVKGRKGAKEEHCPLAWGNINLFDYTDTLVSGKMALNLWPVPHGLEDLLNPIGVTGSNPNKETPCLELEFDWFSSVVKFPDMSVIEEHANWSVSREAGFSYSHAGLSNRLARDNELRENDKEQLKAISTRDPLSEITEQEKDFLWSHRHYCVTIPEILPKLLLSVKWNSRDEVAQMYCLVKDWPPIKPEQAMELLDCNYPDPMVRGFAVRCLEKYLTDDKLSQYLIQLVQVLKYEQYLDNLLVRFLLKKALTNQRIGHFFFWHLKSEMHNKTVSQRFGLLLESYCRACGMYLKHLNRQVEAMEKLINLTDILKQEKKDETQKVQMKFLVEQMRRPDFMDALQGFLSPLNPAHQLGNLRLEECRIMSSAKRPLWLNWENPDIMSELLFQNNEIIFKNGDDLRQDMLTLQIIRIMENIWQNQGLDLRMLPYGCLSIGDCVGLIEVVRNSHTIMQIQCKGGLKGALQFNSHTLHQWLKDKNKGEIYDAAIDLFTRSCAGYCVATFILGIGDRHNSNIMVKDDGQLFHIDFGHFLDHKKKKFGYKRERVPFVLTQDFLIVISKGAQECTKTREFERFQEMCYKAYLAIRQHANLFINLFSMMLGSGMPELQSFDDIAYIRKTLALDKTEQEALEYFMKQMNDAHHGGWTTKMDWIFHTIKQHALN
Summary of the method: (§1)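 PI3K was preincubated with compound (final DMSO 1%), and the reaction was started with PIP2/ATP substrate and run 30–60 min. It was stopped with a detector mix giving 10 nM red probe and 70 nM GST-GRP.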

[3] = target: T3, PI3K (Homo sapiens, UniProt P48736); assay: Fluorescence polarization assay for PI3K; type: biochemical; details: read-out: PI3 Kinase γ IC50
T3 construct: PI3 Kinase γ IC50; other: PI3 Kinase γ; other: PI3 Kinase γ isoform, fluorescence polarization
T3 sequence (P48736 whole entry, canonical isoform): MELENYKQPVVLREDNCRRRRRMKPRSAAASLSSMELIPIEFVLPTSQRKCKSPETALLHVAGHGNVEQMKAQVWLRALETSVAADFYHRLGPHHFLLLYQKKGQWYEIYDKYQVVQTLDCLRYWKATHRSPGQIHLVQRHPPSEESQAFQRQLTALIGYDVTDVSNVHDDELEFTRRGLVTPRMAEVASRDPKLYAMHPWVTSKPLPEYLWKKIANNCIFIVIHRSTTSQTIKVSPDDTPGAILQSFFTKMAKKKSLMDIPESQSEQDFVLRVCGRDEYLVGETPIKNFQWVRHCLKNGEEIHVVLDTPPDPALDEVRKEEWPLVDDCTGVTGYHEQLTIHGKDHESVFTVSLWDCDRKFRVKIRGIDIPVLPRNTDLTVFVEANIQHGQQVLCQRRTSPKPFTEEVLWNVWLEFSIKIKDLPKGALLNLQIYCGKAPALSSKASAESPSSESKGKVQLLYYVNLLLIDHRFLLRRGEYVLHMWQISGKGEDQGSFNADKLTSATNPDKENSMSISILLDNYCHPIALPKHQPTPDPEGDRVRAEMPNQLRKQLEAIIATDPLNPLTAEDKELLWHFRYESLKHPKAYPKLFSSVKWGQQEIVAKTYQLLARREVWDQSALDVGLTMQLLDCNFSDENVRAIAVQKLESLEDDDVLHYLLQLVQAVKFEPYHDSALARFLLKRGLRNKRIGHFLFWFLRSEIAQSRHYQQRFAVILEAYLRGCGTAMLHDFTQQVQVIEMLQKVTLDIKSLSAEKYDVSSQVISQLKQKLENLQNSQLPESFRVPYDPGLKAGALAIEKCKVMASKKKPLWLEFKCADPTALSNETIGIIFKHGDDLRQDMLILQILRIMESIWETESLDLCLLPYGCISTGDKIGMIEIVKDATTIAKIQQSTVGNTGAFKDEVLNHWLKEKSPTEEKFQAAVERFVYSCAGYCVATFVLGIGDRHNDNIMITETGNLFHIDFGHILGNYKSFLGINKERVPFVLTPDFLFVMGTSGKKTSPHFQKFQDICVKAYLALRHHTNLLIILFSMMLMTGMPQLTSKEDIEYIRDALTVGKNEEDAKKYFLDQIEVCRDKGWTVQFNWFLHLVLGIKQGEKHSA
Summary of the method: as §1

[4] = test system: prostate line LNCap; assay: In vitro cell culture growth assay (MTS), LNCap; type: cell-based; details: Homo sapiens, LNCaP, 72 h, LNCap cells, three days after drug treatment
Summary of the method: (§2)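 The readout was MTS dye metabolism at 490 nm, taken after 3-day drug exposure that began the day after seeding. Growth was expressed as percent of vehicle-treated wells in the same plate.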

[5] = test system: breast line MDA468; assay: In vitro cell culture growth assay (MTS), MDA468; type: cell-based; details: Homo sapiens, 72 h, MDA468 cells, three days after drug treatment
Summary of the method: as §2

[6] = purified human mTOR enzyme, DELFIA format
[7] = PI3 Kinase α isoform, fluorescence polarization
[8] = PI3 Kinase γ isoform, fluorescence polarization

Row | IC50 [1, 6] | IC50 [2, 7] | IC50 [3, 8] | IC50 [4] | IC50 [1] | IC50 ([2]; PI3 Kinase α) | IC50 ([3]; PI3 Kinase γ) | Structure (SMILES) | IC50 [5]
1 | 0.015 µM | 1.56 µM | > 10 µM | 0.7 µM | – | – | – | CCn1nc(CN2CCN(C)CC2)c2c(N3CC4CCC(C3)O4)nc(-c3ccc(NC(=O)NC)cc3)nc21 [Example 353, 1-(4-{1-ethyl-3-[(4-methylpiperazin-1-yl)methyl]-4-(8-oxa-3-azabicyclo[3.2.1]oct-3-yl)-1H-pyrazolo[3,4-d]pyrimidin-6-yl}phenyl)-3-methylurea] | 1.2 µM
2 | – | – | – | 0.0008 µM | 0.00066 µM | 0.074 µM | 0.648 µM | Cn1ncc2c(N3CC4CCC(C3)O4)nc(-c3ccc(NC(=O)Nc4ccccc4)cc3)nc21 [Example 55, 1-{4-[1-methyl-4-(8-oxa-3-azabicyclo[3.2.1]oct-3-yl)-1H-pyrazolo[3,4-d]pyrimidin-6-yl]phenyl}-3-phenylurea] | 0.032 µM
3 | – | – | – | 0.018 µM | 0.00027 µM | 3.15 µM | > 10 µM | CC(C)OC(=O)N1CCC(n2ncc3c(N4CC5CCC(C4)O5)nc(-c4ccc(NC(=O)NCCF)cc4)nc32)CC1 [Example 68, isopropyl 4-[6-(4-{[(2-fluoroethyl)carbamoyl]amino}phenyl)-4-(8-oxa-3-azabicyclo[3.2.1]oct-3-yl)-1H-pyrazolo[3,4-d]pyrimidin-1-yl]piperidine-1-carboxylate] | 0.18 µM
4 | – | – | – | < 0.001 µM | 0.000698 µM | 0.096 µM | 1.56 µM | CN1CCN(c2ccc(NC(=O)Nc3ccc(-c4nc(N5CC6CCC(C5)O6)c5cnn(CCF)c5n4)cc3)cc2)CC1 [Example 246, 1-{4-[1-(2-fluoroethyl)-4-(8-oxa-3-azabicyclo[3.2.1]oct-3-yl)-1H-pyrazolo[3,4-d]pyrimidin-6-yl]phenyl}-3-[4-(4-methylpiperazin-1-yl)phenyl]urea] | 0.007 µM
5 | – | – | – | 0.028 µM | 0.000685 µM | 0.068 µM | 1.93 µM | O=C(Nc1ccccc1)Nc1ccc(-c2nc(N3CC4CCC(C3)O4)c3cnn(CCO)c3n2)cc1 [Example 198, 1-{4-[1-(2-hydroxyethyl)-4-(8-oxa-3-azabicyclo[3.2.1]oct-3-yl)-1H-pyrazolo[3,4-d]pyrimidin-6-yl]phenyl}-3-phenylurea] | 0.19 µM
6 | – | – | – | 0.023 µM | 0.00041 µM | 0.202 µM | > 10 µM | CNC(=O)Nc1ccc(-c2nc(N3CC4CCC(C3)O4)c3cnn(C(C)(C)C)c3n2)cc1 [Example 93] | 0.17 µM
7 | 0.0056 µM | 1.1 µM | 7.13 µM | 0.31 µM | – | – | – | CCn1nc(N2CCCC2)c2c(N3CC4CCC(C3)O4)nc(-c3ccc(NC(=O)NC)cc3)nc21 [Example 347, 1-{4-[1-ethyl-4-(8-oxa-3-azabicyclo[3.2.1]oct-3-yl)-3-pyrrolidin-1-yl-1H-pyrazolo[3,4-d]pyrimidin-6-yl]phenyl}-3-methylurea] | 1.3 µM
8 | 0.0075 µM | 1.01 µM | 8.59 µM | 0.28 µM | – | – | – | CCn1nc(N2CCN(C)CC2)c2c(N3CC4CCC(C3)O4)nc(-c3ccc(NC(=O)NC)cc3)nc21 [Example 348, 1-{4-[1-ethyl-3-(4-methylpiperazin-1-yl)-4-(8-oxa-3-azabicyclo[3.2.1]oct-3-yl)-1H-pyrazolo[3,4-d]pyrimidin-6-yl]phenyl}-3-methylurea] | 1 µM
9 | – | – | – | 0.009 µM | 0.00033 µM | 3.32 µM | 9.5 µM | CCOC(=O)N1CCC(n2ncc3c(N4CC5CCC(C4)O5)nc(-c4ccc(NC(=O)NCCF)cc4)nc32)CC1 [Example 32, ethyl 4-[6-(4-{[(2-fluoroethyl)carbamoyl]amino}phenyl)-4-(8-oxa-3-azabicyclo[3.2.1]oct-3-yl)-1H-pyrazolo[3,4-d]pyrimidin-1-yl]piperidine-1-carboxylate] | 0.21 µM
10 | 0.00645 µM | 1.25 µM | > 10 µM | 1 µM | – | – | – | COCC(COC)n1ncc2c(N3CC4CCC(C3)O4)nc(-c3ccc(NC(=O)NCCO)cc3)nc21 [Example 322, 1-(2-hydroxyethyl)-3-(4-{1-[2-methoxy-1-(methoxymethyl)ethyl]-4-(8-oxa-3-azabicyclo[3.2.1]oct-3-yl)-1H-pyrazolo[3,4-d]pyrimidin-6-yl}phenyl)urea] | 2.8 µM
11 | – | – | – | 0.007 µM | 0.00039 µM | 0.629 µM | 6.3 µM | CC(C)(C)OC(=O)N1CCC(n2ncc3c(N4CC5CCC(C4)O5)nc(-c4ccc(NC(=O)Nc5cccnc5)cc4)nc32)CC1 [Example 24, tert-butyl 4-[4-(8-oxa-3-azabicyclo[3.2.1]oct-3-yl)-6-{4-[(pyridin-3-ylcarbamoyl)amino]phenyl}-1H-pyrazolo[3,4-d]pyrimidin-1-yl]piperidine-1-carboxylate] | 0.018 µM
12 | – | – | – | 5.5 µM | 0.00355 µM | 0.386 µM | 9.5 µM | CCn1ncc2c(N3CC4CCC(C3)O4)nc(-c3ccc(NC(=O)NCCCN)cc3)nc21 [Example 176, 1-(3-aminopropyl)-3-{4-[1-ethyl-4-(8-oxa-3-azabicyclo[3.2.1]oct-3-yl)-1H-pyrazolo[3,4-d]pyrimidin-6-yl]phenyl}urea] | 28 µM
13 | – | – | – | 0.018 µM | 0.0012 µM | 3.47 µM | > 10 µM | O=C(Nc1ccc(-c2nc(N3CC4CCC(C3)O4)c3cnn(C4CCN(CC(F)(F)F)CC4)c3n2)cc1)NC1CC1 [Example 265, 1-cyclopropyl-3-(4-{4-(8-oxa-3-azabicyclo[3.2.1]oct-3-yl)-1-[1-(2,2,2-trifluoroethyl)piperidin-4-yl]-1H-pyrazolo[3,4-d]pyrimidin-6-yl}phenyl)urea] | 0.7 µM
14 | – | – | – | 0.001 µM | 0.000305 µM | 0.116 µM | 0.916 µM | Cn1ncc2c(N3CC4CCC(C3)O4)nc(-c3ccc(NC(=O)Nc4ccc(S(=O)(=O)CCN5CCCCC5)cc4)cc3)nc21 [Example 240, 1-{4-[1-methyl-4-(8-oxa-3-azabicyclo[3.2.1]oct-3-yl)-1H-pyrazolo[3,4-d]pyrimidin-6-yl]phenyl}-3-{4-[(2-piperidin-1-ylethyl)sulfonyl]phenyl}urea] | 0.008 µM
15 | 0.000495 µM | 0.221 µM | 2.43 µM | < 0.001 µM | – | – | – | COC1CCC(n2ncc3c(N4CC5CCC(C4)O5)nc(-c4ccc(NC(=O)Nc5ccc(OCCN(C)C)cc5)cc4)nc32)CC1 (stereo not shown) [Example 310, 1-{4-[2-(dimethylamino)ethoxy]phenyl}-3-{4-[1-(4-methoxycyclohexyl)-4-(8-oxa-3-azabicyclo[3.2.1]oct-3-yl)-1H-pyrazolo[3,4-d]pyrimidin-6-yl]phenyl}urea] | 0.001 µM
16 | – | – | – | 0.02 µM | 0.00062 µM | 0.594 µM | 4.91 µM | CC(C)OC(=O)N1CCC(n2ncc3c(N4CC5CCC(C4)O5)nc(-c4ccc(NC(=O)Nc5ccccc5)cc4)nc32)CC1 [Example 71, isopropyl 4-[4-(8-oxa-3-azabicyclo[3.2.1]oct-3-yl)-6-{4-[(phenylcarbamoyl)amino]phenyl}-1H-pyrazolo[3,4-d]pyrimidin-1-yl]piperidine-1-carboxylate] | 0.17 µM
17 | 0.0495 µM | 1.91 µM | 11.6 µM | 1.2 µM | – | – | – | Oc1cccc(-c2nc(N3C[C@@H]4C[C@H]3CO4)c3cnn(-c4ccccc4)c3n2)c1 [Example 382, 3-{4-[(1S,4S)-2-oxa-5-azabicyclo[2.2.1]hept-5-yl]-1-phenyl-1H-pyrazolo[3,4-d]pyrimidin-6-yl}phenol] | 5.5 µM
18 | – | – | – | 0.002 µM | 0.000745 µM | 0.648 µM | > 10 µM | CNC(=O)Nc1ccc(-c2nc(N3CC4CCC(C3)O4)c3cnn(C4CCC(OC)(OC)CC4)c3n2)cc1 [Example 150, 1-{4-[1-(4,4-dimethoxycyclohexyl)-4-(8-oxa-3-azabicyclo[3.2.1]oct-3-yl)-1H-pyrazolo[3,4-d]pyrimidin-6-yl]phenyl}-3-methylurea] | 0.035 µM
19 | – | – | – | 0.01 µM | 0.000265 µM | 1.66 µM | > 10 µM | N#CCCn1ncc2c(N3CC4CCC(C3)O4)nc(-c3ccc(NC(=O)Nc4ccc(N5CCOCC5)nc4)cc3)nc21 [Example 223, 1-{4-[1-(2-cyanoethyl)-4-(8-oxa-3-azabicyclo[3.2.1]oct-3-yl)-1H-pyrazolo[3,4-d]pyrimidin-6-yl]phenyl}-3-(6-morpholin-4-ylpyridin-3-yl)urea] | 0.021 µM
20 | – | – | – | 1.7 µM | 0.0665 µM | 0.482 µM | 9.98 µM | CCn1ncc2c(N3CC4CCC(C3)O4)nc(-c3ccc(NC(=O)NCCN4CCOCC4)cc3)nc21 [Example 179, 1-{4-[1-ethyl-4-(8-oxa-3-azabicyclo[3.2.1]oct-3-yl)-1H-pyrazolo[3,4-d]pyrimidin-6-yl]phenyl}-3-(2-morpholin-4-ylethyl)urea] | 5 µM

From patent publication US8129371B2, “Thienopyrimidine and pyrazolopyrimidine compounds and their use as mTOR kinase and PI3 kinase inhibitors” (Wyeth LLC, priority 2007, dated 2012)
